Here are results for one molecule from patent publication US11938121B2, “Treatment of infections and biofilm formation using a cellulose synthase inhibitor” (Purdue Research Foundation, priority 2020, dated 2024).

In assay [1] the test system is AtCESA6 (cesa6 alleles es20r1-es20r15). Particulars: Huang et al., 2020; cited from earlier work.
The subject of assay [2] is Komagataeibacter xylinus. In words: K. xylinus cell growth on HS solid medium. The class given is cell-based. The note with it: 6 days. From the text: Based on primary protein sequence analysis and a comparison of three-dimensional protein structures, the catalytic sites of cellulose synthases are highly conserved across kingdoms (Huang et al., 2020, Purushotham et al., 2020). The amino acids that are directly involved in glucan chain initiation, elongation, and translocation are conserved between plant and bacterial cellulose synthases (Huang et al., 2020). Based on the conservation of catalytic sites in cellulose synthases, we hypothesized that ES20 and ES20-1 would inhibit bacterial cellulose biosynthesis as well. We chose to test the effects of ES20 and ES20-1 on cell growth and cellulose production in Komagataeibacter xylinus (K. xylinus, previously known as Gluconacetobacter xylinus) because this bacterium produces abundant cellulose. We first tested whether ES20 and ES20-1 affect K. xylinus cell growth. We grew K. xylinus cells in liquid […] (HS) medium and then we inoculated 20 μL of series diluted culture to HS solid growth medium supplemented with DMSO (0.1%) or different concentrations of ES20 and ES20-1. […] We found ES20 and ES20-1 affect K. xylinus colony morphology as well. […] Wrinkles radiating structure is often observed in cellulose-producing bacteria strains and this structure is often affected when cellulose biosynthesis is disrupted.
Komagataeibacter xylinus (previously named Gluconacetobacter xylinus) ATCC strain 700178 was obtained from ATCC (Manassas, Va., USA) to evaluate cellulose production. HS (Hestrin and Schramm) medium was used for culture; HS liquid medium contains 2.0% glucose (w/v), 0.5% yeast extract (w/v), 0.5% peptone (w/v), 0.27% Na2HPO4 (w/v), and 0.15% citric acid (w/v), pH 5.0, and HS solid medium was solidified with 1.8% agar (w/v). To prepare the initial inoculation source, a single K. xylinus colony grown on HS solid medium was transferred to HS liquid medium and cultured at 26° C. for 5 days under static conditions. We used cells from the bottom of the liquid culture as the initial inoculation source to avoid biofilm aggregates at the air-liquid interface. To test the effect of ES20 and ES20-1 on the bacteria growth, initial inoculation source was series diluted and 20 μL culture from each diluted solution was dropped on HS solid medium supplemented with DMSO (0.1%) or different concentrations of ES20 and ES20-1 and cultured at 26° C. for 6 days after the dropped culture was completely dry. To test the effects of ES20 and ES20-1 on cellulose production, the prepared inoculation source was inoculated at a dilution ratio of 1:1000 dilution in HS liquid medium supplemented with 0.1% DMSO or 20 μM of ES20 or ES20-1. Static cultivation was carried out in a 26° C. incubator, and agitated cultivation was carried out at 26° C. with shaking at 220 rpm. […]

Assay [3] deals with Arabidopsis Col-0. The note with it: 1 μM; cited from earlier work.
In assay [4] the test system is Komagataeibacter xylinus. In words: K. xylinus cellulose production in liquid culture. The class given is cell-based. The note with it: 20 μM. The text has this: We next grew K. xylinus cells in growth medium supplemented with DMSO, ES20, or ES20-1 under agitation. […] We also grew K. xylinus in liquid medium supplemented with DMSO, ES20, or ES20-1 under static cultivation conditions. Without agitation, pellicles containing cellulose often form at the air-liquid interface. […] To quantify the effects of ES20 and ES20-1 on cellulose production, we harvested the pellicles from these cultures and isolated cellulose from the pellicles.
Komagataeibacter xylinus (previously named Gluconacetobacter xylinus) ATCC strain 700178 was obtained from ATCC (Manassas, Va., USA) to evaluate cellulose production. HS (Hestrin and Schramm) medium was used for culture; HS liquid medium contains 2.0% glucose (w/v), 0.5% yeast extract (w/v), 0.5% peptone (w/v), 0.27% Na2HPO4 (w/v), and 0.15% citric acid (w/v), pH 5.0, and HS solid medium was solidified with 1.8% agar (w/v). To prepare the initial inoculation source, a single K. xylinus colony grown on HS solid medium was transferred to HS liquid medium and cultured at 26° C. for 5 days under static conditions. We used cells from the bottom of the liquid culture as the initial inoculation source to avoid biofilm aggregates at the air-liquid interface. To test the effect of ES20 and ES20-1 on the bacteria growth, initial inoculation source was series diluted and 20 μL culture from each diluted solution was dropped on HS solid medium supplemented with DMSO (0.1%) or different concentrations of ES20 and ES20-1 and cultured at 26° C. for 6 days after the dropped culture was completely dry. To test the effects of ES20 and ES20-1 on cellulose production, the prepared inoculation source was inoculated at a dilution ratio of 1:1000 dilution in HS liquid medium supplemented with 0.1% DMSO or 20 μM of ES20 or ES20-1. Static cultivation was carried out in a 26° C. incubator, and agitated cultivation was carried out at 26° C. with shaking at 220 rpm. To isolate cellulose from pellicles, the pellicles were removed from liquid culture, washed several times with deionized water, and soaked in 0.1 M NaOH at 80° C. for 2 h. The pellicles were washed several times with deionized water to completely remove the alkali. The purified cellulose was dried at 60° C. for ˜1 day until a constant dry mass was reached.

Assay [5] deals with AtCESA6 carrying missense mutations in prc1-1. Particulars: Huang et al., 2020; cited from earlier work.
The target in assay [6] is T1, YFP-AtCESA6 cellulose synthase complexes (CSCs) in root epidermal cells (Arabidopsis thaliana, UniProt Q94JQ6).
T1 construct: expressed in transfected cells; host or cells: transgenic Arabidopsis thaliana YFP-AtCESA6 seedlings (total protein extract for DARTS; root epidermal cells for imaging)
Particulars: Huang et al., 2020; cited from earlier work.

Assay [7] has as its system maize (Zea mays). In words: Maize seedling root growth. The class given is in vivo. The note with it: 20 μM, 6-day-old seedlings. From the text: (§1) ES20 has broad spectrum inhibitory effect on the growth of both dicotyledonous and monocotyledonous plants (Huang and Zhang, Plant Signal Behav. 2020, 15, 1780039). We tested whether ES20-1 has stronger inhibitory effect on the growth of monocotyledon plants than ES20. We grew rice (Oryza sativa) and maize (Zea mays) seedlings on the same concentrations of ES20 and ES20-1 and compared their effects on growth.

In assay [8] the test system is Rhodobacter sphaeroidesin. In words: Rhodobacter sphaeroidesin growth in overnight culture. The format is cell-based, Rhodobacter sphaeroides. Particulars: vs DMSO control media. From the text: To test the effect of Endosidin20/Cellulosin in bacterial cell growth, we first grew Rhodobacter sphaeroidesin in the presence of Ensodin20/Cellulosin.
Assay [9] has as its target T2, GFP-CESA6c^P595S (Arabidopsis thaliana, UniProt Q94JQ6, P595S).
T2 construct: We purified AtCESA6 central cytoplasmic domain carrying missense mutation P595S (CESA6c^P595S); made in house; host or cells: E. coli (inferred from the wild-type CESA6c construct that served as template)
The assay can be described thus: MST assay with GFP-CESA6c^P595S. The class given is binding. From the text: (§2) To obtain the central cytosolic domain of AtCESA6 for the MST assay, we inserted the GFP coding sequence into the SacI and PstI restriction enzyme sites of the pRSF-Duet-1 vector (Huang et al., 2020). The GFP coding sequence was amplified from the pUBN-GFP-DEST vector. The sequence encoding the central cytosolic domain of CESA6 (CESA6c) was amplified from Col-0 cDNA and fused with GFP at the C-terminus. CESA6c construct was used as a template for creating CESA6c^P595S construct by site-directed mutagenesis. Protein purification was performed as previously described (Huang et al., 2020).
(§3) MST assays were carried out using a Monolith NT.115 (NanoTemper) machine at the Chemical Genomics Facility at Purdue University. […] The ES20-1 was dissolved in DMSO, and the final concentration of DMSO was 5% (vol/vol). MST standard capillaries were used to load the samples into the MST instrument. Triplicate reactions were performed for each test. The MST data were processed using MO. Affinity Analysis Version 2.3 software.

The target of assay [10] is T3, GFP-CESA6c (central cytosolic domain of AtCESA6) (Arabidopsis thaliana, UniProt Q94JQ6).
T3 construct: made in house; host or cells: E. coli
In words: MST assay with GFP-CESA6c. The class given is binding. The note with it: 100 nM GFP-CESA6c.
Description: as §2, §3

In assay [11] the test system is Arabidopsis Col-0. The assay can be described thus: Crystalline cellulose content measurement of cell wall. Particulars: 1 μM, 7-day-old dark-grown seedlings. The class given is in vivo, Arabidopsis thaliana. Here is the method: Arabidopsis Col-0 seeds were sown on growth medium supplemented with 0.1% DMSO, 1 μM ES20, or different concentrations of ES20 analogs. […] Cellulose extraction and measurement were performed as previously described (Huang et al., 2020).

Assay [12] deals with rice (Oryza sativa). In words: Rice seedling root growth. The format is in vivo. The note with it: 20 μM, 6-day-old seedlings.
Description: as §1

Setting [13] is: 5 days static cultivation, vs DMSO.

On to `COc1ccc(C(=O)NC(=S)NNC(=O)c2ccccc2C)cc1` [ES20, Endosidin20], for which the “sensitivity of es20r1-es20r15 mutants to ES20” value in assay [1] is listed as “reduced sensitivity”. Besides, the “K. xylinus cell growth inhibition” value in assay [2] (20 μM and 50 μM) is “inhibit K. xylinus cell growth at both 20 μM and 50 μM concentrations”. In assay [2] (20 μM), the “K. xylinus colony morphology (wrinkles radiating structures)” value is given as “the wrinkles are not obvious”. Further, the “inhibition of Arabidopsis thaliana root growth” value in assay [3] is “more than 50%”. Besides, the “size of cellulose clusters” value in assay [4] (5 days agitated cultivation, vs DMSO) is given as “smaller”. In assay [4] (5 days static cultivation, mean±SD, n=9), the “dry mass of cellulose from pellicles” value was found to be 268 ± 139 mg/L. Besides, in assay [4] (setting [13]), the “decrease of dry mass of cellulose from pellicles” value is around 45% and the pellicle thickness result is “pellicles in cultures containing DMSO are thicker”. Besides, the “sensitivity of transgenic plants with AtCESA6 catalytic site mutations to ES20” value in assay [5] was “also had reduced sensitivity”. Moreover, in assay [6], the “effect on CSC motility, density and localization” value was “reduces the motility and density of CSCs at the PM and induces their accumulation at the SmaCCs and Golgi”; the “effect on delivery rate of CSCs to PM” value was “reduced the delivery rate of CSCs to PM”. Further, the “maize root growth inhibition” value in assay [7] is reported as “could inhibit the root growth”. The “growth of Rhodobacter sphaeroidesin” value in [8] is recorded as “significantly slower”. Moreover, the “interaction with CESA6c^P595S” value in [9] was “interacts”. Also, the “interaction with CESA6c” value in [10] is on record as “interacted”. In [11] (mean±SD, n=3), the “crystalline cellulose content in hypocotyl cell wall” value amounted to 109 ± 4 µg/mg. Also, in [11] (vs DMSO), the “reduction of crystalline cellulose levels in the hypocotyl” value is “approximately 35%”. For the same molecule, the “rice root growth inhibition” value in assay [12] is given as “could inhibit the root growth”.
